Test results reported in patent US8790708B2, “Coated tablet formulations and uses thereof” (Wyeth LLC, priority 2009, dated 2014).
Structures can show the parent of a compound that is named as a salt.

Assay: Surface free energy (work of cohesion) of particles
Type: physicochemical
Text: This property renders the primary particles very cohesive and prone to aggregation as described by B. Janczuk and T. Bialopiotrowicz, “Surface Free-Energy Components of Liquids and Low Energy Solids and Contact Angles,” in J. Colloid Interf. Sci. 127 (1989), p. 189-204; W. R. Good, “A Comparison of Contact Angle Interpretations,” in J. Colloid Interf. Sci. 44 (1973), p. 63; M. D. Lechner (Ed.), Landolt Börnstein, New Series, Vol. IV/16, “Surface Tension of Pure Liquids and Binary Liquid Mixture,” Springer Verlag, 1998; and J. J. Jasper, “The Surface Tension of Pure Liquid Compounds,” in J. Phys. Chem. Ref. Data, Vol. 1, No. 4, 1972, p. 859. […] Due to these limitations, it was not possible to develop a neratinib maleate formulation comprising a capsule or tablet of higher strength employing a direct compression or roller compaction processes successfully. A formulation using a conventional wet granulation method led to chemical degradation and stability issues.

In the case of `CCOc1cc2ncc(C#N)c(Nc3ccc(OCc4ccccn4)c(Cl)c3)c2cc1NC(=O)/C=C/CN(C)C` [Neratinib maleate, (E)-N-(4-(3-chloro-4-(pyridin-2-ylmethoxy)phenylamino)-3-cyano-7-ethoxyquinolin-6-yl)-4-(dimethylamino)but-2-enamide], the “work of cohesion (surface free energy)” value is reported as 45.62 mN/m.
